In patent US20230263822A1, “MODULATION OF FACTOR 11 EXPRESSION” (Ionis Pharmaceuticals, Inc., priority 2008, published 2023):
Strand notation (5' to 3'): a small letter for the sugar, then the base; units joined by * are phosphorothioate-linked, units joined directly phosphodiester-linked; [ ] holds rarer units or linkages, { } end groups; capitals alone tell only the bases. e = 2'-O-(2-methoxyethyl) (MOE); [5mC] = 5-methylcytosine; d = 2'-deoxy (DNA)

Tested on: human Factor 11 mRNA
Test: Antisense inhibition of human Factor 11 in HepG2 cells by microwalk gapmers, lipofectin, 75 nM (Example 3)
Type: cell-based
Experimental: These gapmers were designed by creating gapmers shifted slightly upstream and downstream (i.e. “microwalk”) of the original gapmers from Table 3. Gapmers were also created with various motifs, e.g. 5-10-5 MOE, 3-14-3 MOE, and 2-13-5 MOE. These gapmers were tested in vitro. Cultured HepG2 cells at a density of 10,000 cells per well were transfected using lipofectin reagent with 75 nM antisense oligonucleotide. After a treatment period of approximately 24 hours, RNA was isolated from the cells and Factor 11 mRNA levels were measured by quantitative real-time PCR. Factor 11 mRNA levels were adjusted according to total RNA content, as measured by RIBOGREEN. Results are presented as percent inhibition of Factor 11, relative to untreated control cells.
The chimeric antisense oligonucleotides in Table 4 were designed as 5-10-5 MOE, 3-14-3 MOE, and 2-13-5 MOE gapmers. The first listed gapmers in Table 4 are the original gapmers (see Table 3) from which the remaining gapmers were designed via microwalk and are designated by an asterisk. The 5-10-5 gapmers are 20 nucleotides in length, wherein the central gap segment is comprised of 10 2′-deoxynucleotides and is flanked on both sides (in the 5′ and 3′ directions) by wings comprising 5 nucleotides each. The 3-14-3 gapmers are 20 nucleotides in length, wherein the central gap segment is comprised of 14 2′-deoxynucleotides and is flanked on both sides (in the 5′ and 3′ directions) by wings comprising 3 nucleotides each. The 2-13-5 gapmers are 20 nucleotides in length, wherein the central gap segment is comprised of 13 2′-deoxynucleotides. The central gap is flanked on the 5′ end with a wing comprising 2 nucleotides and on the 3′ end with a wing comprising 5 nucleotides. For each of the motifs (5-10-5, 3-14-3, and 2-13-5), each nucleotide in the 5′ wing segment and each nucleotide in the 3′ wing segment has a 2′-MOE modification. The internucleoside linkages throughout each gapmer are phosphorothioate (P=S) linkages. All cytidine residues throughout each gapmer are 5-methyl cytidines. “Target start site” indicates the 5′-most nucleotide to which the gapmer is targeted. “Target stop site” indicates the 3′-most nucleotide to which the gapmer is targeted. Each gapmer listed in Table 4 is targeted to SEQ ID NO: 1 (GENBANK Accession No. NM_000128.3).

[1] = HepG2 cells, lipofectin, gapmers targeted to nucleobases 1062 to 1091 of SEQ ID NO: 1
[2] = HepG2 cells, lipofectin, gapmers targeted to nucleobases 1275 to 1318 of SEQ ID NO: 1
[3] = HepG2, lipofectin, ~24 h, gapmers targeted to nucleobases 656 to 704 of SEQ ID NO: 1

Substance	% inhibition [2] [%]	% inhibition [3] [%]	other results
416915 (antisense eT*eT*eT*dG*dA*dG*dA*dT*dT*d[5mC]*dT*dT*dT*dG*dG*dG*d[5mC]*e[5mC]*eA*eT) [compound 416915]			% inhibition [1]: 79%
416916 (antisense e[5mC]*eT*eT*dT*dG*dA*dG*dA*dT*dT*d[5mC]*dT*dT*dT*dG*dG*dG*e[5mC]*e[5mC]*eA) [compound 416916]			% inhibition [1]: 91%
416917 (antisense eT*e[5mC]*eT*dT*dT*dG*dA*dG*dA*dT*dT*d[5mC]*dT*dT*dT*dG*dG*eG*e[5mC]*e[5mC]) [compound 416917]			% inhibition [1]: 92%
416918 (antisense eT*eT*e[5mC]*dT*dT*dT*dG*dA*dG*dA*dT*dT*d[5mC]*dT*dT*dT*dG*eG*eG*e[5mC]) [compound 416918]			% inhibition [1]: 63%
416919 (antisense eT*eT*eT*d[5mC]*dT*dT*dT*dG*dA*dG*dA*dT*dT*d[5mC]*dT*dT*dT*eG*eG*eG) [compound 416919]			% inhibition [1]: 27%
416920 (antisense eA*e[5mC]*eA*dG*dT*dT*dT*d[5mC]*dT*dG*dG*d[5mC]*dA*dG*dG*d[5mC]*d[5mC]*eT*e[5mC]*eG) [compound 416920]	88		
416921 (antisense e[5mC]*eA*e[5mC]*dA*dG*dT*dT*dT*d[5mC]*dT*dG*dG*d[5mC]*dA*dG*dG*d[5mC]*e[5mC]*eT*e[5mC]) [compound 416921]	88		
416927 (antisense eT*eT*eG*dG*dT*dG*d[5mC]*dA*d[5mC]*dA*dG*dT*dT*dT*d[5mC]*dT*dG*eG*e[5mC]*eA) [compound 416927]	87		
416928 (antisense eA*eT*eT*dG*dG*dT*dG*d[5mC]*dA*d[5mC]*dA*dG*dT*dT*dT*d[5mC]*dT*eG*eG*e[5mC]) [compound 416928]	91		
416929 (antisense e[5mC]*eA*eT*dT*dG*dG*dT*dG*d[5mC]*dA*d[5mC]*dA*dG*dT*dT*dT*d[5mC]*eT*eG*eG) [compound 416929]	83		
416930 (antisense eG*e[5mC]*eA*dT*dT*dG*dG*dT*dG*d[5mC]*dA*d[5mC]*dA*dG*dT*dT*dT*e[5mC]*eT*eG) [compound 416930]	87		
416932 (antisense e[5mC]*eG*eG*d[5mC]*dA*dT*dT*dG*dG*dT*dG*d[5mC]*dA*d[5mC]*dA*dG*dT*eT*eT*e[5mC]) [compound 416932]	92		
416933 (antisense eA*e[5mC]*eG*dG*d[5mC]*dA*dT*dT*dG*dG*dT*dG*d[5mC]*dA*d[5mC]*dA*dG*eT*eT*eT) [compound 416933]	92		
416934 (antisense eG*eA*e[5mC]*dG*dG*d[5mC]*dA*dT*dT*dG*dG*dT*dG*d[5mC]*dA*d[5mC]*dA*eG*eT*eT) [compound 416934]	90		
416935 (antisense eG*eG*eA*d[5mC]*dG*dG*d[5mC]*dA*dT*dT*dG*dG*dT*dG*d[5mC]*dA*d[5mC]*eA*eG*eT) [compound 416935]	92		
416936 (antisense e[5mC]*eG*eG*dA*d[5mC]*dG*dG*d[5mC]*dA*dT*dT*dG*dG*dT*dG*d[5mC]*dA*e[5mC]*eA*eG) [compound 416936]	89		
416937 (antisense eG*e[5mC]*eG*dG*dA*d[5mC]*dG*dG*d[5mC]*dA*dT*dT*dG*dG*dT*dG*d[5mC]*eA*e[5mC]*eA) [compound 416937]	93		
416938 (antisense eA*eG*e[5mC]*dG*dG*dA*d[5mC]*dG*dG*d[5mC]*dA*dT*dT*dG*dG*dT*dG*e[5mC]*eA*e[5mC]) [compound 416938]	90		
416939 (antisense e[5mC]*eA*eG*d[5mC]*dG*dG*dA*d[5mC]*dG*dG*d[5mC]*dA*dT*dT*dG*dG*dT*eG*e[5mC]*eA) [compound 416939]	88		
416940 (antisense eG*e[5mC]*eA*dG*d[5mC]*dG*dG*dA*d[5mC]*dG*dG*d[5mC]*dA*dT*dT*dG*dG*eT*eG*e[5mC]) [compound 416940]	92		

Substance	% inhibition [2] [%]	% inhibition [3] [%]	other results
416942 (antisense eT*eG*eG*d[5mC]*dA*dG*d[5mC]*dG*dG*dA*d[5mC]*dG*dG*d[5mC]*dA*dT*dT*eG*eG*eT) [compound 416942]	85		
416943 (antisense e[5mC]*eT*eG*dG*d[5mC]*dA*dG*d[5mC]*dG*dG*dA*d[5mC]*dG*dG*d[5mC]*dA*dT*eT*eG*eG) [compound 416943]	92		
416944 (antisense eA*e[5mC]*eT*dG*dG*d[5mC]*dA*dG*d[5mC]*dG*dG*dA*d[5mC]*dG*dG*d[5mC]*dA*eT*eT*eG) [compound 416944]	83		
416946 (antisense eA*eA*dA*dT*dG*dT*d[5mC]*dT*dT*dT*dG*dT*dT*dG*d[5mC]*eA*eA*eG*e[5mC]*eG) [compound 416946]		86	
416947 (antisense eT*eA*dA*dA*dT*dG*dT*d[5mC]*dT*dT*dT*dG*dT*dT*dG*e[5mC]*eA*eA*eG*e[5mC]) [compound 416947]		62	
416948 (antisense eA*eT*dA*dA*dA*dT*dG*dT*d[5mC]*dT*dT*dT*dG*dT*dT*eG*e[5mC]*eA*eA*eG) [compound 416948]		62	
416949 (antisense e[5mC]*eA*dT*dA*dA*dA*dT*dG*dT*d[5mC]*dT*dT*dT*dG*dT*eT*eG*e[5mC]*eA*eA) [compound 416949]		64	
416950 (antisense eA*e[5mC]*dA*dT*dA*dA*dA*dT*dG*dT*d[5mC]*dT*dT*dT*dG*eT*eT*eG*e[5mC]*eA) [compound 416950]		71	
416951 (antisense e[5mC]*eA*d[5mC]*dA*dT*dA*dA*dA*dT*dG*dT*d[5mC]*dT*dT*dT*eG*eT*eT*eG*e[5mC]) [compound 416951]		48	
416952 (antisense e[5mC]*e[5mC]*dA*d[5mC]*dA*dT*dA*dA*dA*dT*dG*dT*d[5mC]*dT*dT*eT*eG*eT*eT*eG) [compound 416952]		51	
416953 (antisense eT*e[5mC]*d[5mC]*dA*d[5mC]*dA*dT*dA*dA*dA*dT*dG*dT*d[5mC]*dT*eT*eT*eG*eT*eT) [compound 416953]		45	
416954 (antisense eG*eT*d[5mC]*d[5mC]*dA*d[5mC]*dA*dT*dA*dA*dA*dT*dG*dT*d[5mC]*eT*eT*eT*eG*eT) [compound 416954]		61	
416955 (antisense eG*eG*dT*d[5mC]*d[5mC]*dA*d[5mC]*dA*dT*dA*dA*dA*dT*dG*dT*e[5mC]*eT*eT*eT*eG) [compound 416955]		75	
416956 (antisense eA*eG*dG*dT*d[5mC]*d[5mC]*dA*d[5mC]*dA*dT*dA*dA*dA*dT*dG*eT*e[5mC]*eT*eT*eT) [compound 416956]		61	
416957 (antisense eT*eA*dG*dG*dT*d[5mC]*d[5mC]*dA*d[5mC]*dA*dT*dA*dA*dA*dT*eG*eT*e[5mC]*eT*eT) [compound 416957]		59	
416958 (antisense e[5mC]*eT*dA*dG*dG*dT*d[5mC]*d[5mC]*dA*d[5mC]*dA*dT*dA*dA*dA*eT*eG*eT*e[5mC]*eT) [compound 416958]		43	
416959 (antisense eT*e[5mC]*dT*dA*dG*dG*dT*d[5mC]*d[5mC]*dA*d[5mC]*dA*dT*dA*dA*eA*eT*eG*eT*e[5mC]) [compound 416959]		25	
416960 (antisense eG*eT*d[5mC]*dT*dA*dG*dG*dT*d[5mC]*d[5mC]*dA*d[5mC]*dA*dT*dA*eA*eA*eT*eG*eT) [compound 416960]		60	
416961 (antisense eT*eG*dT*d[5mC]*dT*dA*dG*dG*dT*d[5mC]*d[5mC]*dA*d[5mC]*dA*dT*eA*eA*eA*eT*eG) [compound 416961]		40	
416962 (antisense eA*eT*dG*dT*d[5mC]*dT*dA*dG*dG*dT*d[5mC]*d[5mC]*dA*d[5mC]*dA*eT*eA*eA*eA*eT) [compound 416962]		77	
